Results as given in US20080299109A1, “MECHANISM OF ASTRICYTE-NEURON SIGNALING” (Korea Institute of Science and Technology, priority 2007, published 2008).
pIC50: −log10 of the molar value.

What was measured:
[1] = system: cultured wild-type mouse astrocytes; assay: Fura-2 intracellular Ca2+ imaging in cultured wild-type astrocytes; assay type: cell-based; conditions: 30 μM TFLLR; for level of astrocytic intracellular Ca^2+ (Fura-2 fluorescence ratio): 10 μM bradykinin, 50 μM 2-methyl-thio-ATP, 10 μM ATP, 30 nM thrombin; for effect on TFLLR-induced Ca^2+ response: 1 μM BMS200261, 1 μM thapsigargin, 50 μM BAPTA-AM 30 min, 2 μM U-73122 10 min
Experimental: Cultured astrocytes were prepared from P0-P3 postnatal mice obtained from KIST SPF. The cerebral cortex was dissected free of adherent meninges, minced, and dissociated into single cell suspension by trituration through a Pasteur pipette. All procedures involving the use of animals were reviewed and approved by the Emory University IACUC. Dissociated cells were plated onto either 12 mm glass coverslips or 6 well plates coated with 0.1 mg/ml poly-D-lysine. Cells were grown in a DMEM media (Gibco, cat# 11960-044) supplemented with 25 mM glucose, 10% heat-inactivated horse serum, and 10% heat-inactivated fetal bovine serum, 2 mM glutamine, and 1000 units/ml penicillin-streptomycin. Cultures were maintained at 37° C. in a humidified 5% CO2-containing atmosphere. […] In some experiments, the culture media was replaced 24 hours after plating with DMEM with all added components except glutamine, and cultures were maintained for 4 days before experimentation in glutamine-free media.
Cultured astrocytes were incubated with 5 µM Fura2-AM in […] pluronic acid (Molecular Probes) for 30 min at room temperature, and subsequently transferred to a microscope stage for imaging. The external solution contained 150 mM NaCl, 10 mM HEPES, 3 mM KCl, 2 mM CaCl2, 2 mM MgCl2, and 5.5 mM glucose, and the pH was adjusted to pH 7.3 and osmolarity to 325 mOsm. Intensity images of a 510 nm wavelength were taken at 340 nm and 380 nm excitation wavelengths using either a Micromax Camera (Princeton) or an intensified video camera (PTI), and the two resulting images were used for ratio calculations using Axon Imaging Workbench version 2.2.1.

PAR1−/− mouse astrocytes = assay: Fura-2 intracellular Ca2+ imaging in cultured PAR1−/− astrocytes; assay type: cell-based; conditions: 30 μM TFLLR, 30 nM thrombin, 10 μM ATP positive control
Experimental: Cultured astrocytes were prepared from P0-P3 postnatal mice obtained from KIST SPF. The cerebral cortex was dissected free of adherent meninges, minced, and dissociated into single cell suspension by trituration through a Pasteur pipette. All procedures involving the use of animals were reviewed and approved by the Emory University IACUC. Dissociated cells were plated onto either 12 mm glass coverslips or 6 well plates coated with 0.1 mg/ml poly-D-lysine. Cells were grown in a DMEM media (Gibco, cat# 11960-044) supplemented with 25 mM glucose, 10% heat-inactivated horse serum, and 10% heat-inactivated fetal bovine serum, 2 mM glutamine, and 1000 units/ml penicillin-streptomycin. Cultures were maintained at 37° C. in a humidified 5% CO2-containing atmosphere. Astrocyte cultures prepared in this way were previously determined by GFAP (glial fibrillary acidic protein) staining to be greater than 95% astrocytes (Nicole et al., 2005). In some experiments, the culture media was replaced 24 hours after plating with DMEM with all added components except glutamine, and cultures were maintained for 4 days before experimentation in glutamine-free media.
Cultured astrocytes were incubated with 5 µM Fura2-AM in […] pluronic acid (Molecular Probes) for 30 min at room temperature, and subsequently transferred to a microscope stage for imaging. […]

wild-type astrocytes = assay: Sniffer-patch detection of glutamate release, GluR1(L497Y)-transfected HEK cells on wild-type astrocytes; assay type: cell-based, mouse
Experimental: HEK 293 cells (ATCC1573) were plated onto 12 mm glass coverslips coated with 5-10 ug/ml poly-D-lysine and grown in a DMEM media (Gibco, cat# 11960-044) supplemented with 25 mM glucose, 10% heat-inactivated horse serum, and 10% heat-inactivated fetal bovine serum, 2 mM glutamine, and 1000 units/ml penicillin-streptomycin (Banke & Traynelis, 2000; Traynelis & Wahl, 1996). The obtained cultures were maintained at 37° C. in a humidified 5% CO2-containing atmosphere.
HEK 293 cells were transfected with a 1:3.5 ratio of GFP and GluR1(L497Y) using the calcium phosphate method using effectence for 6-8 hours, after which the media was replaced and supplemented with 1 mM kynurenic acid and 10 μM N-(4-hydroxyphenylpropanoyl) spermine or 10 μM CNQX. The transfected HEK cells were subsequently trypsinized and replated onto astrocyte feeder layers derived from either wild-type or PAR1−/− mice 24 hours post-transfection, and recordings performed 24 hours after replating.
(§1) Whole-cell perforated-patch recording from cultured cortical neurons or HEK cells under voltage clamp (holding potential −60 mV) was made with an Axopatch 200B amplifier (Axon Instruments, Union City, Calif.). The recording chamber was continually perfused with a recording solution comprised of 150 mM NaCl, 3 mM KCl, 2 mM CaCl2, 5.5 mM glucose, and 10 mM HEPES (pH 7.4 by NaOH; osmolality adjusted to 315-320 mOsm with sucrose). Recording electrodes (4-7 MΩ) were filled with (in mM) 150 mM CsMeSO4, 10 mM NaCl, 0.5 CaCl2, 10 mM HEPES, and 25-50 μg/ml gramicidin D (pH adjusted to 7.3 with CsOH and osmolality adjusted to 310 mOsm with sucrose). It took 20-30 min to achieve acceptable perforation with series resistance ranging from 30-60 MΩ. All electrophysiological data from cultured neurons cells in this study were collected at room temperature (23-26° C.).
Thus, this technique provides millisecond time resolution for the detection of micromolar levels of glutamate released from astrocytes.
GluR1(L497Y)-transfected HEK cells were directly plated onto an astrocyte monolayer, and subsequently the whole cell HEK current response under voltage clamp during a brief 0.2 sec application of the PAR1 activator TFLLR (500 μM), ATP (300 μM), or bradykinin (180 μM), respectively, from a pressurized pipette was recorded (FIGS. 5a, and 5b).
Concentration(t)=EC50[response(t)/(100−response(t))]^(1/n) (Formula 1)

cultured neurons = assay: Sniffer-patch glutamate release from cultured neurons; assay type: cell-based; conditions: 10 μM CNQX, 530 mOsm
Experimental: To verify this prediction, effects of a hyperosmotic solution on the glutamate-release from cultured neurons and astrocytes were evaluated and are shown in FIGS. 7a to 7c.
The detection is abolished by the treatment of 10 μM CNQX.

GluR1(L497Y) = molecular target: T1, GluR1(L497Y) (Rattus norvegicus, UniProt P19490, L497Y); assay: Glutamate activation of GluR1(L497Y) in transfected HEK cells; assay type: cell-based
T1 construct: expressed in transfected cells; host or cells: HEK 293 cells (ATCC1573)
T1 sequence (P19490 19-907 L497Y): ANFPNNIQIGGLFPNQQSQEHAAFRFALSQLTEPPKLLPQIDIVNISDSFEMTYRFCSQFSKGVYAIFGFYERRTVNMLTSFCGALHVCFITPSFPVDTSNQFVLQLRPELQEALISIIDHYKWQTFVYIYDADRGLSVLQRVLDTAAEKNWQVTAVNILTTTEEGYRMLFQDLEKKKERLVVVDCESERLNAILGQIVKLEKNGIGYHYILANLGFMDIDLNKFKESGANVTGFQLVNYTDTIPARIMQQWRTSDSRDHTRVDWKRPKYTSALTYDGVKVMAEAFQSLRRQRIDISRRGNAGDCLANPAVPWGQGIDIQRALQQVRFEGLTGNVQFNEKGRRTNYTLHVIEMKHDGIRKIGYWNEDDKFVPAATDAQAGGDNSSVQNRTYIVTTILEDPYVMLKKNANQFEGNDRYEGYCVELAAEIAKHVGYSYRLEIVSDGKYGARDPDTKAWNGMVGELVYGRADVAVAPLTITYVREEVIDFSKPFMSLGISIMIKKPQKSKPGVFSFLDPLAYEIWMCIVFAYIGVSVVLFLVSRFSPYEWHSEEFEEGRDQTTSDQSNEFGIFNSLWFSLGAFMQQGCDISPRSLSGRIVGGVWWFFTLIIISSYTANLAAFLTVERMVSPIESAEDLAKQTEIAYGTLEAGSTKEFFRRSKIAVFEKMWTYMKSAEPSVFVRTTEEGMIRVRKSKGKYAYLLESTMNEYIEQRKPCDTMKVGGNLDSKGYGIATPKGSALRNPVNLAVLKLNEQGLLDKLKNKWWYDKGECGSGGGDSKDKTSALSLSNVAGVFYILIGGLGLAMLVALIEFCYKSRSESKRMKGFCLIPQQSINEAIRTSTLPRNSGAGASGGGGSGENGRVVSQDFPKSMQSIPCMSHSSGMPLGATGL
Experimental: HEK 293 cells were transfected with a 1:3.5 ratio of GFP and GluR1(L497Y) using the calcium phosphate method using effectence for 6-8 hours, after which the media was replaced and supplemented with 1 mM kynurenic acid and 10 μM N-(4-hydroxyphenylpropanoyl) spermine or 10 μM CNQX.
as §1

cultured astrocytes = assay: 3H-glutamate release assay in cultured wild-type astrocytes; assay type: cell-based, mouse; conditions: 50 μM BAPTA-AM 30 min; 50 μM trans-PDC present or absent
Experimental: Astrocytes obtained in the above Example 1.1 were loaded with 0.5 μM L-3H-glutamate for 60 min by adding […] of 1 mCi/ml L-3H-glutamate stock solution to 2 ml of DMEM culture media.
Cells were washed with an external solution 3 times.
Agonists (TFLLR 30 μM) were added to the external solution for 6 min and the experiment was terminated by collection of the solution. Each experimental run included a control condition in which no agonist was added. Six replicates were obtained for each drug condition. For analysis, the average radioactivity count was obtained from 6 replicates for each condition and this average was compared to the average of the control condition.
Cells were washed with an external solution and subsequently TFLLR (30 μM) was added for 6 min. […] In the top panel, the thick boxes represent cells in culture media and the white boxes represent cells in external solution.

glutamate transporters = conditions: read-out: IC50 glutamate uptake block; Mitrovic & Johnston, 1994; cited from earlier work
[2] = system: PAR1−/− cortical neurons on wild-type astrocyte monolayer; assay: PAR1−/− cortical neurons co-cultured on wild-type astrocytes: dendritic Ca2+ and voltage clamp; assay type: cell-based, mouse; conditions: 300 μM TFLLR pressure-applied to astrocytes; 50 μM NMDA
Experimental: For an astrocyte-neuron co-culture, a monolayer of wild-type astrocytes was grown to 70-100% confluency (7-14 days in culture). Subsequently, the cortex from a P0 to P5 PAR1−/− mouse (Connolly et al., 1996) was dissected free of meninges and digested for 30 min in 1 mg/ml trypsin at 37° C. PAR1−/− mice were >99% C57B1/6 (>7 backcrossings), and wild-type mice were from a colony derived from PAR1−/− littermates.
All experiments were done within 3 generations of establishing the homozygous colony. The cortical cells were plated at low density on top of the monolayer of wild-type astrocytes obtained in above Example 1.1. Neurons were used for Ca^2+ imaging after 1-5 days in culture.
as §1
After a 20 min recovery, the bath perfusion was stopped and TFLLR was applied by brief (<1 sec) pressure ejection onto the astrocyte hosting the dye-loaded neuron in a static bath condition. Changes in fluorescence were monitored in a number of dendritic processes (schematized in FIGS. 8a and 8b).

CA1 pyramidal neurons = assay: Ca2+ dye imaging of CA1 pyramidal neurons in hippocampal slices; assay type: cell-based, rat; conditions: thrombin 30 nM, TFLLR 30 μM, trans-ACPD 100 μM, (S)-3,5-dihydroxyphenylglycine 30 μM
Experimental: Young rats (Sprague-Dawley, age P15-P20) or mice (C57/B16, age P14-19) were deeply anesthetized with isoflurane and decapitated. The brain was rapidly removed and submerged in an ice-cold oxygenated artificial cerebrospinal fluid (ACSF) comprised of 130 mM NaCl, 24 mM NaHCO3, 3.5 mM KCl, 1.25 mM NaH2PO4, 1 mM CaCl2,3 mM MgCl2, and 10 mM glucose saturated with 95% O2/5% CO2, at pH 7.4.
The external solution contained 1 μM TTX. Throughout the experiments, −5 mV voltage steps (15 ms duration) were applied at 30 sec intervals from a holding potential of −70 mV to continuously monitor the holding current, series resistance, and membrane input resistance. After entering whole-cell mode, the CA1 pyramidal cells in slices were maintained for 20 min to allow for dye filling before image acquisition using a Princeton Micromax camera.
After the baseline period, TFLLR (30-100 μM) was applied, and images were acquired every 3 sec with a 25 ms exposure to 450-490 nm light for each image. Ca^2+-dependent fluorescence intensity (520 nm) was measured in cell bodies and processes by using Axon Imaging Workbench (v2.2.1) and expressed as ratio image of (F-Fo)/Fo, where Fo is the fluorescence intensity before drug treatment.

Nc1ncnc2c1ncn2[C@@H]1O[C@H](COP(=O)(O)OP(=O)(O)OP(=O)(O)O)[C@@H](O)[C@H]1O [ATP]
level of astrocytic intracellular Ca^2+ (Fura-2 fluorescence ratio) [1]: increase
intracellular Ca^2+ concentration in PAR1−/− astrocytes (PAR1−/− mouse astrocytes): still responded
inward current in adjacent GluR1(L497Y)-transfected HEK cell (wild-type astrocytes; brief pressure application 500 μM TFLLR, 300 μM ATP, 180 μM bradykinin): elicited an inward current
peak glutamate concentration (wild-type astrocytes; wild-type astrocytes, converted from current by Formula 1): ~5.9 µM

C/C=C(/C)C(=O)O[C@H]1C(C)=C2[C@H]([C@@H]1OC(=O)CCCCCCC)[C@@](C)(OC(C)=O)C[C@H](OC(=O)CCC)[C@@]1(O)[C@H]2OC(=O)[C@@]1(C)O [thapsigargin]
effect on TFLLR-induced Ca^2+ response [1]: blocked

CSc1nc(N)c2ncn([C@@H]3O[C@H](COP(=O)(O)OP(=O)(O)OP(=O)(O)O)[C@@H](O)[C@H]3O)c2n1 [2-methyl-thio-ATP]
level of astrocytic intracellular Ca^2+ (Fura-2 fluorescence ratio) [1]: increase

N#Cc1cc2[nH]c(=O)c(=O)[nH]c2cc1[N+](=O)[O-] [CNQX]
effect on TFLLR-evoked inward current in GluR1(L497Y) HEK cell (wild-type astrocytes; 10 μM CNQX): reversibly inhibits
effect on TFLLR-evoked inward currents, glutamine-free medium (wild-type astrocytes; glutamine-free medium): completely abolished
effect on detection of hyperosmotic-solution evoked neuronal glutamate release (cultured neurons): abolished

N[C@@H](CCC(=O)O)C(=O)O [glutamate]
Hill slope (GluR1(L497Y)): 1.3

COc1ccc2c(c1)CC[C@@H]1[C@@H]2CC[C@]2(C)[C@@H](NCCCCCCN3C(=O)C=CC3=O)CC[C@@H]12 [U-73122]
effect on TFLLR-induced Ca^2+ response [1]: similarly blocked

CC(=O)OCOC(=O)CN(CC(=O)OCOC(C)=O)c1ccccc1OCCOc1ccccc1N(CC(=O)OCOC(C)=O)CC(=O)OCOC(C)=O [BAPTA-AM, 1,2-bis(2-aminophenoxy)ethane-N,N,N′,N′-tetra-acetic acid acetoxymethyl ester]
effect on TFLLR-induced glutamate release (cultured astrocytes): blocked

O=C(O)[C@H]1CN[C@H](C(=O)O)C1 [trans-PDC, L-transpyrrolidine-2,4-dicarboxylic acid]
effect on TFLLR-induced glutamate release (cultured astrocytes): indistinguishable
pIC50 (glutamate transporters): 5.10 to 5.40

CN[C@H](CC(=O)O)C(=O)O [NMDA, N-methyl-D-aspartic acid]
intra-neuronal Ca^2+ in dendrites (Oregon Green BAPTA-2 fluorescence) [2]: saturating response

trans-Cinnamoyl-F(f)-F(Gn)L-Arg-Arg-NH2 [BMS 200261]
effect on TFLLR-induced Ca^2+ response [1]: reversibly and completely antagonized

N[C@H](C(=O)O)c1cc(O)cc(O)c1 [(S)-3,5-dihydroxyphenylglycine]
somatic fluorescence of Ca^2+-sensitive dyes in CA1 pyramidal neurons (CA1 pyramidal neurons): strong increases
